“And” between values parts separate entries of the source, which are not always exact repeats. Equal values may be shown once. Read-outs that look alike come from different tables or passages of the source.
Key:
[1] = system: virus-infected cells; conditions: cited from earlier work
[2] = system: influenza A virus (IAV) infected cells; conditions: caspase-mediate apoptosis pathway; cited from earlier work
[3] = system: HBV; conditions: mouse model of chronic HBV infection; cited from earlier work
[4] = system: HBV; assay: HBV replication in HepG2.2.15 liver cancer cell line; assay type: cell-based
Source text: (§1) Similar to the above mentioned IAP inhibitors, Compound 2 of the present invention is a potent IAP inhibitor and can promote apoptosis, and thus could be a potential antiviral compound for coronavirus infection treatment. FIGS. 1A-1C show the effect of Compound 2 on apoptotic induction, IAPs expression, and HBV replication and gene expression in HepG2.2.15 liver cancer cell line.

[5] = system: SARS-CoV-2; assay: microbe, parasite or virus in culture; assay type: cell-based; conditions: for IC50: Severe acute respiratory syndrome coronavirus 2, Vero; for Max Inhibition (%): Vero cells, MOI 0.0125, 24 hpi, at the Max Conc. of each compound (5, 50 or 150 uM)
[6] = in vitro; conditions: African green monkey
[7] = molecular target: ABL1-nonphosphorylated (Homo sapiens, UniProt P00519); assay: Compound 1 kinase inhibition activity (% Ctrl), ABL1-nonphosphorylated; assay type: biochemical
Sequence of ABL1-nonphosphorylated (P00519 whole entry): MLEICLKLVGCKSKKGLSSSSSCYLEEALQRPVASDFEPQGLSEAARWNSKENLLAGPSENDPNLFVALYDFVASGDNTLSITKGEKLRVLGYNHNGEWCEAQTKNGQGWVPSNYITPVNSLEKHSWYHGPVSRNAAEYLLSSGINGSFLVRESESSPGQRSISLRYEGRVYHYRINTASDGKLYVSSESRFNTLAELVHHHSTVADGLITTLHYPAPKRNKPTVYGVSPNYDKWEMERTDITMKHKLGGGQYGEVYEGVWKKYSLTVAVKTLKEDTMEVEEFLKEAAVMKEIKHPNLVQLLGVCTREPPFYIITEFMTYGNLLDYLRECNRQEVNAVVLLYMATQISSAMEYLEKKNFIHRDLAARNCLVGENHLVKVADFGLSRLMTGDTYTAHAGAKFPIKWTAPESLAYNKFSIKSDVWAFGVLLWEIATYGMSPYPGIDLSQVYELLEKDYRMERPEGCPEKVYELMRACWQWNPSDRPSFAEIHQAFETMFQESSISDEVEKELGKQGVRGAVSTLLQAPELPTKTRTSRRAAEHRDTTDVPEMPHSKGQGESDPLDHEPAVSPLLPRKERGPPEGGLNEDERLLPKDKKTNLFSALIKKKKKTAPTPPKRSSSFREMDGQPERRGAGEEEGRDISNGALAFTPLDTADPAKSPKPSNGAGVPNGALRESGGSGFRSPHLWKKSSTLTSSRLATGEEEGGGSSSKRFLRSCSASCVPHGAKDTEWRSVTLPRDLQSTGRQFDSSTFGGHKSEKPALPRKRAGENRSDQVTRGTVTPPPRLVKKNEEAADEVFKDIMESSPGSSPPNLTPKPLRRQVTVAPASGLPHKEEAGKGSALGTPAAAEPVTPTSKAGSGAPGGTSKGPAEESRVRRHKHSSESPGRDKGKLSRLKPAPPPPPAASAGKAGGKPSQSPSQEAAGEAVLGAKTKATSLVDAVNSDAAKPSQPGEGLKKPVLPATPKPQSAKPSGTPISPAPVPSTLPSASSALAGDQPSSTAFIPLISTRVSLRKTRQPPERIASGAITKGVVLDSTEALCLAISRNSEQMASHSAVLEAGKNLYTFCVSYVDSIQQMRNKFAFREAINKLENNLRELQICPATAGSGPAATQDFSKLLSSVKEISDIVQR

[8] = system: BCR-ABL1 expressing Ba/F3; conditions: read-out: IC50 Cellular Activity (BCR-ABL1 expressing Ba/F3)
[9] = molecular target: ABL2 (Homo sapiens, UniProt P42684); assay: Compound 1 kinase inhibition activity (% Ctrl), ABL2; assay type: biochemical
Sequence of ABL2 (P42684 whole entry, species assumed): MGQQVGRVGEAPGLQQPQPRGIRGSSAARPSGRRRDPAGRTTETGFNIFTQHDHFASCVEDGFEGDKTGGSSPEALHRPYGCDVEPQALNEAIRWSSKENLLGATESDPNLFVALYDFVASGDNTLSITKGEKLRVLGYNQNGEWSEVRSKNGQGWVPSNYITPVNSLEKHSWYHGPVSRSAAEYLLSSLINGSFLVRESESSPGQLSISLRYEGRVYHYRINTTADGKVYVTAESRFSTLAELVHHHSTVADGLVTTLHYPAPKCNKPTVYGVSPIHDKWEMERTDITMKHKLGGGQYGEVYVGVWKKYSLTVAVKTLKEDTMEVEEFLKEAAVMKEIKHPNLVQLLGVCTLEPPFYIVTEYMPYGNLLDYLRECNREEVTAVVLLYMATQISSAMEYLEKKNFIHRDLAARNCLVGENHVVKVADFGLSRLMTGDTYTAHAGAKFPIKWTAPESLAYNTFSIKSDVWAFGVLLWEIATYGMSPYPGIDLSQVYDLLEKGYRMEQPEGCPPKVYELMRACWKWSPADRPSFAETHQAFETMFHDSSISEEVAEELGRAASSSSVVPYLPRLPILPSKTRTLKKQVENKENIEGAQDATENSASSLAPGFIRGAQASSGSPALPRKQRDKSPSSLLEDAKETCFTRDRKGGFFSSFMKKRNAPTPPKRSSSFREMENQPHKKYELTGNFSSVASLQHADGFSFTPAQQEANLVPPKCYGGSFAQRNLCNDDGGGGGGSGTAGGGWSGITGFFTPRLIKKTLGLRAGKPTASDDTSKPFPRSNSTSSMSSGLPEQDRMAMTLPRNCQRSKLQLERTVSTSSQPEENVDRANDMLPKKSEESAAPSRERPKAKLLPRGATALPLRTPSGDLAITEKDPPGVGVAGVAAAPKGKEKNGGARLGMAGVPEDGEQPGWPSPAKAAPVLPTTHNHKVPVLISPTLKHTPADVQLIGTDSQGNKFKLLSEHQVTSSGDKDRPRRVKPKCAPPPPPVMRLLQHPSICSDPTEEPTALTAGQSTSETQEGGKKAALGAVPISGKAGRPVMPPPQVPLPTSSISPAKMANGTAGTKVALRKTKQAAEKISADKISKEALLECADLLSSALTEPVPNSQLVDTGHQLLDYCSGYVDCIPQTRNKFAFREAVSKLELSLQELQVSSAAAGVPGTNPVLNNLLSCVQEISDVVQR

[10] = molecular target: ABL1-phosphorylated (Homo sapiens, UniProt P00519); assay: Compound 1 kinase inhibition activity (% Ctrl), ABL1-phosphorylated; assay type: biochemical
Sequence of ABL1-phosphorylated (P00519 whole entry): as the sequence (P00519 whole entry) above

[11] = system: influenza virus; assay type: in vivo, mice
[12] = molecular target: T1, RIPK1 (Homo sapiens, UniProt Q13546); assay: RIPK1 kinase assay (Promega RIPK1 Kinase Enzyme System kit); assay type: biochemical; conditions: cell free assay
T1 sequence (Q13546 1-327 limits assumed): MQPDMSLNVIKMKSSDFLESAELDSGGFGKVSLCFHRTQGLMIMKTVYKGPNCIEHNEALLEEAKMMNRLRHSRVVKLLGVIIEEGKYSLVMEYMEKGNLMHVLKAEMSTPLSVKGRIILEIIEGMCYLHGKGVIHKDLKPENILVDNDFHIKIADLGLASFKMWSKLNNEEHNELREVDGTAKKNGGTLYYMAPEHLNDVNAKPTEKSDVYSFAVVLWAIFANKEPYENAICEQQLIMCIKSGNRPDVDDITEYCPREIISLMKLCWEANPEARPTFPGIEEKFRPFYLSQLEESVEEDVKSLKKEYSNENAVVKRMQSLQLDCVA

[13] = system: cytokines associated with influenza virus induced cytokine storm; assay: Inhibition of cytokines associated with influenza virus induced cytokine storm, U937 cells, Luminex assay; assay type: cell-based; conditions: U937 cells infected with influenza virus, MOI 0.1, 24 hours treatment
Description: Following the method described in Front Immunol. 2019 Jun. 21; 1393 and Am. J. Physiol., Lung Cell Mol. Physiol. 315: L52-L58, 2018, U937 cells were infected with influenza virus at a MOI of 0.1 and treated with indicated concentrations of Compound 1 and Compound 2. The supernatant of cells was harvested after 24 hours treatment and the production of indicated cytokines were determined using Luminex assay. The method and results are shown below in FIG. 7 and FIGS. 8A-8C. Survival of influenza virus (IFV) infected mice are shown Table 4 and in FIGS. 9A-9B.

[14] = molecular target: BCR-ABL1 kinase (Homo sapiens, UniProt P00519); assay: biochemical
Sequence of BCR-ABL1 kinase (P00519 27-1130): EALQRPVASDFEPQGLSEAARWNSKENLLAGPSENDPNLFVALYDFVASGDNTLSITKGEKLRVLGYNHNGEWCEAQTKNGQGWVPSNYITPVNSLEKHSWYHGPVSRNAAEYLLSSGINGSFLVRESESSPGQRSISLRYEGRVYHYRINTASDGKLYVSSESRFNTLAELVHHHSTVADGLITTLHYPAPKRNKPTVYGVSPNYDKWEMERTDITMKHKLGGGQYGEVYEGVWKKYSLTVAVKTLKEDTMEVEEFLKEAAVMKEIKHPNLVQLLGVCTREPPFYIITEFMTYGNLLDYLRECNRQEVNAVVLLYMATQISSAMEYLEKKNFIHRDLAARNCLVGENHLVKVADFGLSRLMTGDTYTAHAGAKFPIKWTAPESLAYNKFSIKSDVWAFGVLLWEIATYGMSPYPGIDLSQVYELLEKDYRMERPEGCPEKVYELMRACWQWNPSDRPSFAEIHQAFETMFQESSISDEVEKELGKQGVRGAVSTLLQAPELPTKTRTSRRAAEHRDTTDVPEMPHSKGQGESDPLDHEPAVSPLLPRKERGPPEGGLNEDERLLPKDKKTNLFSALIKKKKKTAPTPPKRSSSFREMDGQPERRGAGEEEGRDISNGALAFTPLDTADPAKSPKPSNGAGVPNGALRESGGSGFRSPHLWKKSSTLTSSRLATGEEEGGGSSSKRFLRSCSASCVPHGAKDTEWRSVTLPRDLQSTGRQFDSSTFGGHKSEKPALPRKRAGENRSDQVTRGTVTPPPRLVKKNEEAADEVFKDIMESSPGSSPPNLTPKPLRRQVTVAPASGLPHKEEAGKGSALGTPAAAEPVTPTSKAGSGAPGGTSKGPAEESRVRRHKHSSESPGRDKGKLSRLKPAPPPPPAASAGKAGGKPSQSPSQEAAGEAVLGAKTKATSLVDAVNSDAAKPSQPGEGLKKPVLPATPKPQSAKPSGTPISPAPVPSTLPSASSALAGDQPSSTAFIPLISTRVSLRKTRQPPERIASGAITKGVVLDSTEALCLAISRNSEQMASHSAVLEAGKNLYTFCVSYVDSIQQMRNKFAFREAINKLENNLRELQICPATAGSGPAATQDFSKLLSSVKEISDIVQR

[15] = system: HBV; assay: Virus clearance in pAAV-HBV 1.3 model; assay type: in vivo; conditions: injection, C57BL/6J mice
[16] = system: HBV; assay: HBV models in mice: hepatocyte apoptosis and liver immune readouts; assay type: in vivo
[17] = system: HepG2.2.15 liver cancer cell line; assay: Apoptotic induction in HepG2.2.15 liver cancer cell line; assay type: cell-based; conditions: combination with TNF-α
Source text: as §1

[18] = system: IAPs; assay: IAPs expression in HepG2.2.15 liver cancer cell line; assay type: cell-based
Source text: as §1

[19] = system: Vero E6 cells; conditions: cited from earlier work
[20] = system: MERS-CoV; conditions: Vero E6 and MRC5 cells; cited from earlier work
[21] = system: SARS-CoV; conditions: Vero E6 and Calu-3 cells; cited from earlier work
[22] = system: MERS-CoV; conditions: Vero E6 cells; cited from earlier work
[23] = system: SARS-CoV; conditions: Vero E6 cells; cited from earlier work
[24] = system: IL-8, IP-10, MCP-1; conditions: cytokines associated with influenza-induced cytokine storm; cited from earlier work

CC1(C)CCC(c2ccc(Cl)cc2)=C(CN2CCN(c3ccc(C(=O)NS(=O)(=O)c4ccc(N[C@H](CCN5CCOCC5)CSc5ccccc5)c(S(=O)(=O)C(F)(F)F)c4)cc3)CC2)C1 [ABT-236]
apoptosis in virus-infected cells [1]: accelerate apoptosis in virus-infected cells

CC1(C)CCC(c2ccc(Cl)cc2)=C(CN2CCN(c3ccc(C(=O)NS(=O)(=O)c4ccc(N[C@H](CCN5CCOCC5)CSc5ccccc5)c(S(=O)(=O)C(F)(F)F)c4)cc3)CC2)C1 [ABT-263]
apoptosis in virus-infected cells [2]: accelerates apoptosis in virus-infected cells

CN(C)CC[C@H](CSc1ccccc1)Nc1ccc(S(=O)(=O)NC(=O)c2ccc(N3CCN(Cc4ccccc4-c4ccc(Cl)cc4)CC3)cc2)cc1[N+](=O)[O-] [ABT-737]
apoptosis in virus-infected cells [1]: accelerate apoptosis in virus-infected cells

CC[C@H](NC(=O)[C@H](C)NC)C(=O)N1C[C@@H](O)C[C@H]1Cc1c(-c2[nH]c3cc(F)ccc3c2C[C@@H]2C[C@H](O)CN2C(=O)[C@H](CC)NC(=O)[C@H](C)NC)[nH]c2cc(F)ccc12 [Birinapant]
elimination of hepatocytes containing HBV core antigen [3]: promote the elimination
serum HBV DNA [3]: rapidly reduce
serum HBV surface antigen [3]: rapidly reduce
virus replication ([4]; high concentrations): impair enhancement of virus replication
virus replication ([4]; low concentrations): increased virus replication

CCN(CC)CCCC(C)Nc1ccnc2cc(Cl)ccc12 (stereo not drawn) [Chloroquine]
IC50 [5]: 13 µM
Max Inhibition (%) [5]: 100.01%
CC50 [6]: > 150 µM

Cc1ccc(C(=O)Nc2ccc(CN3CCN(C)CC3)c(C(F)(F)F)c2)cc1C#Cc1cnc2[nH]ncc2c1 [Compound 1, 3-(2-(1H-pyrazolo[3,4-b]pyridin-5-yl)ethynyl)-4-methyl-N-(4-((4-methylpiperazin-1-yl)methyl)-3-(trifluoromethyl)phenyl)-benzamide]
remaining activity at 0.01 µM ([7]; read-out: % Ctrl @ 10 nM): 4.4%
remaining activity at 0.1 µM ([7]; read-out: % Ctrl @ 100 nM): 0.1%
remaining activity at 1 µM ([7]; read-out: % Ctrl @ 1000 nM): 0%
IC50 [8]: 0.006 ± 0.003 µM
IC50 [5]: 1.32 µM
SARS-CoV-2 infection in Vero cell ([5]; result in words): inhibits SARS-CoV-2 infection in Vero cell
remaining activity at 0.01 µM ([9]; 10 nM): 2.6%
remaining activity at 0.1 µM ([9]; 100 nM): 0%
remaining activity at 1 µM ([9]; 1000 nM): 0%
remaining activity at 0.01 µM ([10]; read-out: % Ctrl @ 10 nM): 3%
remaining activity at 0.1 µM ([10]; read-out: % Ctrl @ 100 nM): 0%
remaining activity at 1 µM ([10]; read-out: % Ctrl @ 1000 nM): 0%
survival of influenza virus infected mice ([11]; at the amounts of 5 mg/kg or 10 mg/kg): improves the survival of influenza virus infected mice
Day 21 Survival number ([11]; mouse, in vivo): 1 and 2
Survival rate (%) ([11]; mouse, in vivo): 11.11% and 22.22%
IC50 [12]: 0.054 µM
CC50 [6]: > 5 µM
production of cytokines associated with influenza induced cytokine storm [13]: inhibits the production of cytokines associated with influenza induced cytokine storm
IC50 [14]: 0.0003 ± 4.5e-06 µM

CN[C@@H](C)C(=O)N[C@H]1CN(S(=O)(=O)c2cccc(S(=O)(=O)N3CC[C@H]4CC[C@@H](C(=O)NC(c5ccccc5)c5ccccc5)N4C(=O)[C@@H](NC(=O)[C@H](C)NC)C3)c2)CC[C@H]2CC[C@@H](C(=O)NC(c3ccccc3)c3ccccc3)N2C1=O [Compound 2, (5S,5′S,8S,8′S,10aR,10a′R)-3,3′-(1,3-phenylenedisulfonyl)bis(N-benzhydryl-5-((S)-2-(methylamino)propanamido)-6-oxodecahydropyrrolo[1,2-a][1,5]diazocine-8-carboxamide)]
IC50 [5]: > 50 µM
Max Inhibition (%) [5]: 25.93%
virus clearance [15]: promotes virus clearance
apoptosis in the HBV-infected (HBsAg+) hepatocytes ([16]; HBV models in mice): specifically induced apoptosis
expression of IFN-γ and TNF-α ([16]; liver tissue of HBV models): promotes the expression of IFN-γ and TNF-α
number of CD4+ and CD8+ T cells ([16]; liver tissue of HBV models): promotes
apoptosis pathway activation [17]: significantly activate apoptosis pathway
CC50 [6]: > 50 µM
expression of IAPs [18]: inhibits the expression of IAPs in a dose-dependent manner
virus replication ([4]; high concentrations): impair enhancement of virus replication
virus replication ([4]; low concentrations): increased virus replication
production of cytokines associated with influenza induced cytokine storm [13]: inhibits the production of cytokines associated with influenza induced cytokine storm

Cc1nc(Nc2ncc(C(=O)Nc3c(C)cccc3Cl)s2)cc(N2CCN(CCO)CC2)n1 [Dasatinib]
cytotoxicity [19]: low cytotoxicity

Cc1ccc(NC(=O)c2ccc(CN3CCN(C)CC3)cc2)cc1Nc1nccc(-c2cccnc2)n1 [Imatinib]
virus production of MERS-CoV [20]: showed inhibition
cytotoxicity [19]: low cytotoxicity
virus production of SARS-CoV [21]: showed inhibition
inhibition of MERS-CoV [22]: inhibit
inhibition of SARS-CoV [23]: inhibit

Cc1cccc(C)c1OCC(=O)N[C@@H](Cc1ccccc1)[C@@H](O)C[C@H](Cc1ccccc1)NC(=O)[C@H](C(C)C)N1CCCNC1=O [Lopinavir]
IC50 [5]: 17.3 µM
Max Inhibition (%) [5]: 99.93%
CC50 [6]: > 50 µM

Cc1cn(-c2cc(NC(=O)c3ccc(C)c(Nc4nccc(-c5cccnc5)n4)c3)cc(C(F)(F)F)c2)cn1 [Nilotinib, reference compound]
IC50 [8]: 0.01 ± 0.003 µM
production of IL-8, IP-10 and MCP-1 [24]: inhibit the production

CCOC(=O)C1=C[C@@H](OC(CC)CC)[C@H](NC(C)=O)[C@@H](N)C1 [Oseltamivir]
Survival rate (%) ([11]; 10 mpk, QD, 2 hr prior to infection, day 21): 100%
Day 21 Survival number ([11]; 10 mpk, QD, 2 hr prior to infection, of 9 animals): 9

Cc1ccc(C(=O)Nc2ccc(CN3CCN(C)CC3)c(C(F)(F)F)c2)cc1C#Cc1cnc2cccnn12 [Ponatinib]
Day 21 Survival number ([11]; mouse, in vivo): 2 and 1
Survival rate (%) ([11]; mouse, in vivo): 22.22% and 11.11%

CCC(CC)COC(=O)[C@H](C)N[P@](=O)(OC[C@H]1O[C@@](C#N)(c2ccc3c(N)ncnn23)[C@H](O)[C@@H]1O)Oc1ccccc1 [Remdesivir]
IC50 [5]: 12.4 µM
Max Inhibition (%) [5]: 95.01%
CC50 [6]: > 50 µM

— patent publication US20230078120A1 (priority 2020, published 2023)
